The target of one experiment is T1, eIF5A:DOHH complex (Homo sapiens, UniProt Q9BU89).
T1 construct: Endogenous DOHH co-immunoprecipitated with FLAG-eIF5A; expressed in transfected cells; host or cells: 293T cells (DOHH endogenous, FLAG-eIF5A transfected)
T1 sequence (Q9BU89 1-302): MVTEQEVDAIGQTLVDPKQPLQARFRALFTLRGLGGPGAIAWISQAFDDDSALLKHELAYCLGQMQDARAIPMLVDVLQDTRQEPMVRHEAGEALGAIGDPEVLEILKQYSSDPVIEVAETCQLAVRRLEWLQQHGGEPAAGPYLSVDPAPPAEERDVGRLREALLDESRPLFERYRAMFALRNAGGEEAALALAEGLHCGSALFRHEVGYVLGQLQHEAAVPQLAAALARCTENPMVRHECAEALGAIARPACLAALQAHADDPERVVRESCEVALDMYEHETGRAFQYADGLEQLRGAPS
The experiment in a line: Co-immunoprecipitation of eIF5A with DOHH from 293T cell extracts. The format is cell-based. The conditions noted are these: for interaction between endogenous eIF5A and tagged DOHH: 293T transfected with FLAG-DOHH; for association of endogenous DOHH with FLAG-eIF5A: CPX 30 μM, P2 30 μM, DEF 250 μM, DFOX 10 μM, GC7 10 μM, 24 hr. The method, then: (§1) Immunoprecipitation and immunoblotting experiments were carried out as described previously in Hoque et al. Mol Cell Biol 2003, 23:1688-1702.
eIF5A forms tight complexes with its modifying enzymes. Unmodified eIF5A (lysine-50) immunoprecipitates with DHS and deoxyhypusyl-eIF5A interacts with DOHH in vitro. It was discovered that the deoxyhypusyl-eIF5A:DOHH complex formed in vivo can be detected by immunoprecipitation from cell extracts. Taking advantage of this finding, the effects of the drugs on the enzyme-substrate interaction were tested. FLAG-eIF5A was expressed in 293T cells and complexes that immunoprecipitated with anti-FLAG antibody were immunoblotted and probed with antibodies against DOHH. […] As a further control, the DHS inhibitor GC7 was included in this assay. […] As expected, none of the compounds affected the immunoprecipitation of FLAG-eIF5A (FIG. 2D, middle panel) or the expression of endogenous eIF5A (FIG. 2D, bottom panel). Reciprocally, the interaction between endogenous eIF5A and tagged DOHH was inhibited by CPX and DEF (FIG. 2E, right). Similarly, the interaction of endogenous eIF5A with tagged DHS was inhibited by GC7 (FIG. 2E, left) but resistant to CPX and DEF. It is concluded that CPX and DEF, but not P2 or DFOX, target DOHH and inhibit its interaction with its substrate, deoxyhypusylelF5A.

In a further experiment the test system is eIF5A. The experiment in a line: eIF5A maturation in 293T cells, immunoblot with NIH-353 antibody. The experiment is classed as cell-based, human. Conditions: for concentration range reducing appearance of mature eIF5A: 293T transfected with FLAG-eIF5A, 24 hr. The method, then: Rabbit NIH-353 antibody was raised against mature human eIF5A (Cracchiolo et al. Gynecol Oncol 2004, 94:217-222). Antibody against DOHH was generated by M. H. Park. Anti-eIF5A-1 monoclonal antibody (BD) was purchased from BD Biosciences. The anti-FLAG monoclonal antibody M2 and anti-actin antibody were purchased from Sigma.
as §1
To examine the effect of the drugs on the synthesis of modified eIF5A, 293T cells transfected with a FLAG-tagged eIF5A expression vector were simultaneously treated with CPX or DEF. FLAG-eIF5A was monitored using NIH-353 and anti-FLAG antibodies (FIG. 2A,B). The NIH-353 antibody reacts preferentially with post-translationally modified eIF5A. CPX reduced the appearance of mature eIF5A over the 3-30 μM concentration range, while DEF was effective at 200-400 μM. […] In addition to the CPX homolog Agent P2, deferoxamine (DFOX; Desferal™) was used as a control compound.
Background: In western blotting, separated proteins are transferred to a membrane and probed.

The next experiment has as its system HIV-1 promoter. The experiment is described as follows: Dual luciferase assay, HIV-1 molecular clone pNL4-3-LucE- and derived constructs in 293T cells. The format is cell-based. The conditions noted are these: for inhibition of expression from construct VI: 3′-LTR replaced by SV40 poly(A) signal; for dose dependence of repression of expression from pNL4-3-LucE- / repression of luciferase expression (FF:Ren) from pNL4-3-LucE-: 12 hr post-transfection; for repression of luciferase expression (FF:Ren) from pNL4-3-LucE-: CPX 30 μM, DEF 250 μM, P2 30 μM; for inhibition of FF expression from construct V: all open reading frames deleted except luciferase; for inhibition of FF expression from constructs III and IV: within 12 hr, Tat-deficient constructs complemented with Tat vector. The method, then: Plasmids were introduced into 2×10^5 293T cells by transfection using Lipofectamine 2000 (Invitrogen) according to the manufacturer's instructions. Compounds (such as CPX or DEF) were added simultaneously. Cells were harvested at 12 hr post-transfection, washed with PBS, lysed in 0.15 ml of 1× passive lysis buffer (Promega), and assayed for luciferase activity using the Promega dual luciferase reporter system according to the manufacturer's instructions. Jurkat cells (1×10^6 cells) were transfected using FuGENE 6 (Roche) according to the manufacturer's instructions and assayed in a similar fashion after pelleting.
293T cells (10^5 cells/well of 12-well microplates) were seeded and transfected 20 hr later with a firefly luciferase (Luc)-expressing reporter plasmid and corresponding Renilla luciferase (Ren)-expressing reference plasmid using TransFectin™ (Bio-Rad, Hercules, Calif.). The bioavailable intracellular iron concentration was monitored using plasmids obtained from B. Galy and M. W. Hentze (EMBL, Heidelberg). Plasmid pcFIF-Luc contains the mouse ferritin H 5′-UTR with an iron response element (IRE) controlling Luc; pcFIRo-Ren is a similar construct expressing a mutated non-functional IRE fused to Ren. The activity of the HIV-1 promoter was monitored using the pNL4-3-Luc E molecular clone (Chen et al. (1994) J Virol 68: 654-660.), based on the recombinant infectious proviral clone that contains DNA from HIV isolates NY5 (5′ half) and IIIB (3′ half). This plasmid, obtained from D. Baltimore (Caltech, Pasadena), contains the Luc gene in place of 102 nucleotides from nef and 6 nucleotides from env. pCMV-Ren (Promega, Madison, Wis.) was used as reference for pNL4-3-Luc E. Compounds were added at the time of transfection. Cells were harvested 12 hr later, washed with phosphate-buffered saline, and lysed for the dual luciferase assay (Dual Luciferase™ Reporter Assay System; Promega, Madison, Wis.). Luc data were normalized to the Ren internal controls (Hogue et al. (2009) Retrovirology 6: 90.).
293T cells were selected as a model system to explore the relationship between the drugs, eIF5A and HIV gene expression. These cells efficiently transcribe HIV-1 genes from molecular clones as well as subviral constructs, allowing for early detection of changes in HIV gene expression. To establish the system, assays were carried out to examine the effect of CPX and DEF on the expression of firefly luciferase (FF) from the HIV-1 molecular clone, pNL4-3-LucE-, engineered to carry the FF gene in place of the viral nef gene. The molecular clone was transfected into 293T cells together with the pCMV-Ren vector that expresses Renilla luciferase (Ren) from the cytomegalovirus (CMV) immediate early promoter as a control for transfection efficiency and non-specific effects of the compounds. Dual luciferase assays were conducted at 12 hr post-transfection and results are expressed as relative luciferase activity (FF:Ren). […] Assays therefore were carried out to characterize the action of CPX and DEF on eIF5A and HIV gene expression in 293T cells during the first 12 to 24 hr of drug treatment.

As to `Cc1cc(C2CCCCC2)n(O)c(=O)c1` [CPX, 6-cyclohexyl-1-hydroxy-4-methylpyridin-2[1H]-one], on eIF5A:DOHH complex, the “interaction between endogenous eIF5A and tagged DOHH” value is “inhibited”; the “association of endogenous DOHH with FLAG-eIF5A” value (from here on “association of endogenous DOHH”) is given as “largely prevented”. Besides, the “concentration range reducing appearance of mature eIF5A” value in the experiment with eIF5A lay in the range of 3 to 30 µM. For the same molecule, in the experiment with HIV-1 promoter, the “inhibition of expression from construct VI” value was ~50%; the “dose dependence of repression of expression from pNL4-3-LucE-” value was “repressed expression from the HIV-1 molecular clone in a dose dependent fashion”; the “inhibition of FF expression from construct V” value is reported as ~50%; the “inhibition of FF expression from constructs III and IV” value is on record as ~50%. In addition, the “repression of luciferase expression (FF:Ren) from pNL4-3-LucE-” value (shortened to “repression of luciferase expression”) with HIV-1 promoter (DFOX 15 μM) was ~50%.
As to `Cc1c(O)c(=O)ccn1C` [DEF, 3-hydroxy-1,2-dimethylpyridin-4(1H)-one], on eIF5A:DOHH complex, the “interaction between endogenous eIF5A and tagged DOHH” value is listed as “inhibited”; the “association of endogenous DOHH” value is listed as “largely prevented”. Further, in the experiment on eIF5A, the “concentration range reducing appearance of mature eIF5A” value lay in the range of 200 to 400 µM. For the same molecule, in the experiment on HIV-1 promoter, the “inhibition of expression from construct VI” value is ~50%; the “dose dependence of repression of expression from pNL4-3-LucE-” value is “repressed expression from the HIV-1 molecular clone in a dose dependent fashion”; the “inhibition of FF expression from construct V” value is reported as ~50%; the “inhibition of FF expression from constructs III and IV” value is listed as ~50%. Besides, the “repression of luciferase expression” value with HIV-1 promoter (DFOX 15 μM) was ~50%.
`Cc1ccn(O)c(=O)c1` [Agent P2, 1-hydroxy-4-methylpyridin-2[1H]-one]: the “association of endogenous DOHH” value on eIF5A:DOHH complex is on record as “neither P2 or DFOX prevented the formation of the eIF5A:DOHH complex”. For the same molecule, the “effect on appearance of mature FLAG-eIF5A” value in the experiment with eIF5A (293T, control compounds) is given as “little or no effect”. Also, the “repression of luciferase expression” value in the experiment with HIV-1 promoter (DFOX 15 μM) was “ineffective”. Besides, the “decrease of HIV-encoded luciferase expression” value with HIV-1 promoter (run parallel to IRE reporter (FIG. 11B), DFOX 15 μM) is “no effect on either IRE-dependent or HIV-encoded luciferase expression”.

The values are drawn from US20120225093A1, “Abrogating HIV-1 Infection via Drug-Induced Reactivation of Apoptosis” (UNIVERSITY OF MEDICINE AND DENTISTRY OF NEW JERSEY, priority 2010, published 2012).
